Measured values published in US8338565B2, “Macrocyclic compounds for inhibition of tumor necrosis factor alpha” (Ensemble Therapeutics Corporation, priority 2008, dated 2012).
Like-named read-outs stand apart in the source and are kept apart here. Numbered stars: 1 amine (or outer) side, 2 acyl side, 3 side chain; on linkers, the order of the positions; unused ones are H or OH. Bridge positions count the residues as written; N and C are the ends. Square brackets hold non-standard residues; d marks the D form. Peptide text beside a SMILES is read from it. * marks the point of attachment. Tartaroyl(2R,3R-(OAc)2) = CC(=O)O[C@@H](C(=O)[*:1])[C@@H](OC(C)=O)C(=O)[*:2]; Phe(4-CF3) = N[C@@H](Cc1ccc(C(F)(F)F)cc1)C(=O)O; Phe(4-COOH) = N[C@@H](Cc1ccc(C(=O)O)cc1)C(=O)O; Bip = N[C@@H](Cc1ccc(-c2ccccc2)cc1)C(=O)O; dBip = N[C@H](Cc1ccc(-c2ccccc2)cc1)C(=O)O; dPhe(4-NH2) = Nc1ccc(C[C@@H](N)C(=O)O)cc1; Phe(4-Cl) = N[C@@H](Cc1ccc(Cl)cc1)C(=O)O; dPhe(4-Br) = N[C@H](Cc1ccc(Br)cc1)C(=O)O; Phe(4-NH2) = Nc1ccc(C[C@H](N)C(=O)O)cc1; Ala(2-furyl) = N[C@@H](Cc1ccco1)C(=O)O; Met(O2) = CS(=O)(=O)CC[C@H](N)C(=O)O; Maleoyl = O=C(/C=C\C(=O)[*:2])[*:1]; d(hPhe) = N[C@H](CCc1ccccc1)C(=O)O; 2Pal = N[C@@H](Cc1ccccn1)C(=O)O; 2Thi = N[C@@H](Cc1cccs1)C(=O)O; Cha = N[C@@H](CC1CCCCC1)C(=O)O; d2Thi = N[C@H](Cc1cccs1)C(=O)O; Suc = O=C(CCC(=O)[*:2])[*:1]; Nicotinoyl = O=C(c1cccnc1)*; X2 = O=C(O)[C@H]1CCCN(*)C1; Boc = CC(C)(C)OC(=O)*; Ava = NCCCCC(=O)O; GABA = NCCCC(=O)O; βAla = NCCC(=O)O

Biological target: T1, TNFα / TNFα receptor (TNFα R1/Fc) (Homo sapiens, UniProt P01375)
T1 construct: purchased R&D Systems
T1 sequence (P01375 77-233 limits assumed, species assumed): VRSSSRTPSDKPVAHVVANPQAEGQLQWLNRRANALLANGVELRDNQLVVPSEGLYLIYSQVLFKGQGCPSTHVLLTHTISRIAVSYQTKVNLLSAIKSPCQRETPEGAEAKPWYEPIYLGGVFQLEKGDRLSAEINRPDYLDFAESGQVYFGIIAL
Experiment: Inhibition of binding of TNFα to the TNFα receptor (plate ELISA competition)
Conditions: Table 2
Procedure, shortened: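 Plates were coated with TNFα at 15 nM. Test compound and 8.33 nM receptor-Fc (PBST, 2% DMSO) were first mixed in solution for 30 min at room temperature, then transferred to the plates for another 30 min. Competition was read by absorbance at 450 nm after HRP anti-human IgG Fc detection with TMB.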

[1] = read-out: Activity (IC50, inhibition of TNFα binding to TNFα R1/Fc)
[2] = Activity (IC50, inhibition of TNFα binding to TNFα R1/Fc)

SMILES | IC50 [1] [µM] | IC50 [2] [µM]
O=C1CCC(=O)N[C@H](Cc2cccs2)C(=O)N[C@@H](Cc2ccccc2)C(=O)N[C@H](Cc2ccccc2)C(=O)N[C@H](C(=O)O)Cc2ccc(cc2)N1 [Compound 83] ([d2Thi]F[dF][Phe(4-NH2)]-OH; linker N-4 via Suc) | > 100 | –
O=C(O)[C@H](Cc1ccccc1)NC(=O)[C@@H]1Cc2ccc(cc2)NC(=O)[C@H](O)[C@@H](O)C(=O)N[C@@H](Cc2cccs2)C(=O)N[C@H](Cc2ccc(Br)cc2)C(=O)N[C@@H](Cc2ccccc2)C(=O)N1 [Compound 439] | 30 to 100 | –
O=C1CCC(=O)N[C@H](Cc2ccccc2)C(=O)N[C@@H](Cc2ccc(-c3ccccc3)cc2)C(=O)N[C@H](Cc2ccccc2)C(=O)N[C@H](C(=O)O)Cc2ccc(cc2)N1 [Compound 128] ([dF][Bip][dF][Phe(4-NH2)]-OH; linker N-4 via Suc) | 30 to 100 | –
O=C1CCC(=O)N[C@H](Cc2cccs2)C(=O)N[C@@H](Cc2ccc(Cl)cc2)C(=O)N[C@H](Cc2ccccc2)C(=O)N[C@H](C(=O)O)Cc2ccc(cc2)N1 [Compound 105] ([d2Thi][Phe(4-Cl)][dF][Phe(4-NH2)]-OH; linker N-4 via Suc) | 30 to 100 | –
O=C1COc2ccc(cc2)C[C@@H](C(=O)O)NC(=O)[C@H](Cc2cccs2)NC(=O)[C@@H](Cc2ccc(-c3ccccc3)cc2)NC(=O)[C@H](Cc2ccncc2)N1 [Compound 652] | < 10 | –
CC(C)(C)Oc1ccc(C[C@@H]2NC(=O)COc3ccc(cc3)C[C@@H](C(=O)O)NC(=O)[C@H](Cc3ccccc3)NC(=O)[C@H](Cc3ccc(-c4ccccc4)cc3)NC2=O)cc1 [Compound 489] | > 100 | –
CC(C)(C)c1ccc(C[C@@H]2NC(=O)COc3ccc(cc3)C[C@@H](C(=O)O)NC(=O)[C@H](CCc3ccccc3)NC(=O)[C@@H](Cc3ccc(-c4ccccc4)cc3)NC2=O)cc1 [Compound 515] | 10 to 30 | –
CC(C)(C)OC(=O)NCCCC(=O)N[C@H]1CC(=O)Nc2ccc(cc2)C[C@@H](C(=O)O)NC(=O)[C@@H](Cc2ccccc2)NC(=O)[C@H](Cc2ccc(-c3ccccc3)cc2)NC(=O)[C@@H](Cc2cccs2)NC1=O [Compound 516] ({Boc-GABA}-D[d2Thi][Bip][dF][Phe(4-NH2)]-OH; lactam 1-5) | 30 to 100 | –
O=C(O)CCCCNC(=O)[C@@H]1Cc2ccc(cc2)NC(=O)CCC(=O)N[C@H](Cc2cccs2)C(=O)N[C@@H](Cc2ccc(-c3ccccc3)cc2)C(=O)N[C@H](CCc2ccccc2)C(=O)N1 [Compound 450] ([d2Thi][Bip][d(hPhe)][Phe(4-NH2)][Ava]-OH; linker N-4 via Suc) | 30 to 100 | –
O=C1COc2ccc(cc2)C[C@@H](C(=O)N[C@@H](Cc2ccccc2)c2nnn[nH]2)NC(=O)[C@H](CCc2ccccc2)NC(=O)[C@@H](Cc2ccc(-c3ccccc3)cc2)NC(=O)[C@H](Cc2ccncc2)N1 [Compound 592] | < 10 | –
O=C1CCC(=O)N[C@H](Cc2cccs2)C(=O)N[C@@H](CCCCNC(=O)c2cccnc2)C(=O)N[C@H](Cc2ccccc2)C(=O)N[C@H](C(=O)O)Cc2ccc(cc2)N1 [Compound 96] ([d2Thi]K(Nicotinoyl)[dF][Phe(4-NH2)]-OH; linker N-4 via Suc) | > 100 | –
O=C1COc2ccc(cc2)C[C@@H](C(=O)N[C@H](CO)C(=O)O)NC(=O)[C@H](CCc2ccccc2)NC(=O)[C@@H](Cc2ccc(-c3ccccc3)cc2)NC(=O)[C@H](Cc2ccncc2)N1 [Compound 555] | – | < 10
O=C1CCC(=O)N[C@H](Cc2cccs2)C(=O)N[C@@H](Cc2ccc(-c3ccccc3)cc2)C(=O)N[C@@H](Cc2ccccn2)C(=O)N[C@H](C(=O)O)Cc2ccc(cc2)N1 [Compound 53] ([d2Thi][Bip][2Pal][Phe(4-NH2)]-OH; linker N-4 via Suc) | > 100 | –
CC(=O)O[C@H]1C(=O)Nc2ccc(cc2)C[C@H](C(=O)N[C@@H](Cc2ccccc2)C(=O)O)NC(=O)[C@@H](Cc2ccccc2)NC(=O)[C@H](Cc2ccc(-c3ccccc3)cc2)NC(=O)[C@@H](Cc2cccs2)NC(=O)[C@@H]1OC(C)=O [Compound 394] ([d2Thi][Bip][dF][dPhe(4-NH2)]F-OH; linker N-4 via Tartaroyl(2R,3R-(OAc)2)) | < 10 | –
O=C1/C=C\C(=O)N[C@@H](CC2CCCCC2)C(=O)N[C@@H](Cc2ccc(-c3ccccc3)cc2)C(=O)N[C@H](CCc2ccccc2)C(=O)N[C@H](C(=O)O)Cc2ccc(cc2)N1 [Compound 197] ([Cha][Bip][d(hPhe)][Phe(4-NH2)]-OH; linker N-4 via Maleoyl) | < 10 | –
O=C1N[C@H](Cc2ccccc2)C(=O)N[C@@H](C(=O)O)Cc2ccc(cc2)NC(=O)[C@H](O)[C@@H](O)C(=O)N[C@@H](Cc2cccs2)C(=O)N[C@H]1Cc1ccc(-c2ccccc2)cc1 [Compound 277] | > 100 | –
NC(=O)C[C@@H]1NC(=O)COc2ccc(cc2)C[C@@H](C(=O)O)NC(=O)[C@H](Cc2ccccc2)NC(=O)[C@@H](Cc2ccc(-c3ccccc3)cc2)NC1=O [Compound 488] | > 100 | –
COc1cccc(C[C@@H]2NC(=O)[C@H](Cc3cccs3)NC(=O)COc3ccc(cc3)C[C@@H](C(=O)O)NC(=O)[C@H](Cc3ccccc3)NC2=O)c1 [Compound 408] | > 100 | –

SMILES | IC50 [1] [µM] | IC50 [2] [µM]
O=C1COc2ccc(cc2)C[C@@H](C(=O)NCc2nnn[nH]2)NC(=O)[C@H](Cc2ccccc2)NC(=O)[C@@H](Cc2ccc(-c3ccccc3)cc2)NC(=O)[C@H](Cc2cccs2)N1 [Compound 591] | – | < 10
O=C1COc2ccc(cc2)C[C@@H](C(=O)O)NC(=O)[C@H](CCc2ccccc2)NC(=O)[C@@H](Cc2ccc(-c3ccccc3)cc2)NC(=O)[C@H](Cc2ccc(O)cc2)N1 [Compound 686] | < 10 | –
O=C1CCC(=O)N[C@H](Cc2cccs2)C(=O)N[C@@H](Cc2ccc(-c3ccccc3)cc2)C(=O)N[C@H](Cc2cccs2)C(=O)N[C@H](C(=O)O)Cc2ccc(cc2)N1 [Compound 74] ([d2Thi][Bip][d2Thi][Phe(4-NH2)]-OH; linker N-4 via Suc) | 30 to 100 | –
COc1ccc(-c2ccc(C[C@@H]3NC(=O)[C@@H](Cc4cccs4)NC(=O)[C@H](O)[C@@H](O)C(=O)Nc4ccc(cc4)C[C@@H](C(=O)O)NC(=O)[C@@H](Cc4ccccc4)NC3=O)cc2)cc1 [Compound 333] | 30 to 100 | –
O=C1COc2ccc(cc2)C[C@@H](C(=O)O)NC(=O)[C@@H](Cc2ccc(C(F)(F)F)cc2)NC(=O)[C@H](Cc2ccc(-c3ccccc3)cc2)NC(=O)[C@@H](Cc2cccs2)N1 [Compound 531] | > 100 | –
O=C1CCNC(=O)c2ccc(cc2)C[C@@H](C(=O)O)NC(=O)[C@H](Cc2ccccc2)NC(=O)[C@@H](Cc2ccc(-c3ccccc3)cc2)NC(=O)[C@@H](CCc2ccccc2)N1 [Compound 466] ([βAla][d(hPhe)][dBip]F[Phe(4-COOH)]-OH; lactam N-5) | > 100 | –
O=C1COc2ccc(cc2)C[C@@H](C(=O)O)NC(=O)[C@H](CCc2ccccc2)NC(=O)[C@@H](Cc2ccc(-c3ccncc3)cc2)NC(=O)[C@H](Cc2ccncc2)N1 [Compound 666] | 10 to 30 | –
CC(=O)O[C@H]1C(=O)Nc2ccc(cc2)C[C@@H](C(=O)N[C@@H](Cc2ccccc2)C(=O)O)NC(=O)[C@H](Cc2ccccc2)NC(=O)[C@@H](Cc2ccc(Br)cc2)NC(=O)[C@H](Cc2cccs2)NC(=O)[C@@H]1OC(C)=O [Compound 418] ([2Thi][dPhe(4-Br)]F[Phe(4-NH2)]F-OH; linker N-4 via Tartaroyl(2R,3R-(OAc)2)) | > 100 | –
COc1ccc(C[C@@H]2NC(=O)[C@@H](Cc3cccs3)NC(=O)CCC(=O)Nc3ccc(cc3)C[C@@H](C(=O)O)NC(=O)[C@@H](Cc3ccccc3)NC2=O)cc1 [Compound 104] ([d2Thi]Y(Me)[dF][Phe(4-NH2)]-OH; linker N-4 via Suc) | > 100 | –
CS(=O)(=O)CC[C@@H]1NC(=O)[C@@H](Cc2cccs2)NC(=O)CCC(=O)Nc2ccc(cc2)C[C@@H](C(=O)O)NC(=O)[C@@H](Cc2ccccc2)NC1=O [Compound 98] ([d2Thi][Met(O2)][dF][Phe(4-NH2)]-OH; linker N-4 via Suc) | > 100 | –
N[C@H]1CC(=O)Nc2ccc(cc2)C[C@@H](C(=O)O)NC(=O)[C@@H](Cc2ccccc2)NC(=O)[C@H](Cc2ccc(-c3ccccc3)cc2)NC(=O)[C@@H](Cc2cccs2)NC1=O [Compound 371] (H-D[d2Thi][Bip][dF][Phe(4-NH2)]-OH; lactam 1-5) | > 100 | –
O=C1CCC(=O)N[C@H](CCc2ccccc2)C(=O)N[C@@H](Cc2ccc(C(F)(F)F)cc2)C(=O)N[C@@H](Cc2ccco2)C(=O)N[C@H](C(=O)O)Cc2ccc(cc2)N1 [Compound 224] ([d(hPhe)][Phe(4-CF3)][Ala(2-furyl)][Phe(4-NH2)]-OH; linker N-4 via Suc) | > 100 | –
O=C1COc2ccc(cc2)C[C@@H](C(=O)O)NC(=O)[C@H](CCc2ccccc2)NC(=O)[C@@H](Cc2ccc(-c3cccnc3)cc2)NC(=O)[C@H](Cc2cccnc2)N1 [Compound 668] | > 100 | –
O=C1N[C@@H](C(=O)O)Cc2ccc(cc2)NC(=O)[C@H](O)[C@@H](O)C(=O)N[C@H](Cc2cccs2)C(=O)N[C@H](Cc2ccc(-c3ccccc3)cc2)C(=O)N[C@H]1Cc1ccccc1 [Compound 281] | > 100 | –
COC(=O)[C@@H]1Cc2ccc(cc2)OCC(=O)N[C@@H](Cc2cccs2)C(=O)N[C@H](Cc2ccc(-c3ccccc3)cc2)C(=O)N[C@@H](CCc2ccccc2)C(=O)N1 [Compound 615] | > 100 | –
O=C(O)C[C@H]1NC(=O)[C@H](Cc2ccc(-c3ccccc3)cc2)NC(=O)[C@@H](Cc2cccs2)NC(=O)CCC(=O)Nc2ccc(cc2)C[C@@H](C(=O)O)NC1=O [Compound 65] ([d2Thi][Bip][dD][Phe(4-NH2)]-OH; linker N-4 via Suc) | > 100 | –
O=C1CCC(=O)N[C@H](Cc2cccs2)C(=O)N[C@@H](Cc2ccc(-c3ccccc3)cc2)C(=O)N[C@H](Cc2ccccc2)C(=O)N[C@H](C(=O)N2CCC[C@H](C(=O)O)C2)Cc2ccc(cc2)N1 [Compound 37] ([d2Thi][Bip][dF][Phe(4-NH2)]-X2; linker N-4 via Suc) | > 100 | –
O=C1COc2ccc(cc2)C[C@@H](C(=O)O)NC(=O)[C@@H](CCc2ccccc2)NC(=O)[C@H](Cc2ccc(-c3ccccc3)cc2)NC(=O)[C@@H](Cc2ccc(F)c(F)c2)N1 [Compound 524] | 10 to 30 | –
